A value given as a limit tells only on which side of the number the result lay.

This passage reports melting point and IC50 results from patent publication US20030004172A1, “Fused pyrimidinone matrix metalloproteinase inhibitors” (priority 2001, published 2003).

Data set [1] deals with MMP-13CD (catalytic domain of collagenase-3) (Homo sapiens, UniProt P45452). The data set can be described thus: Thiopeptolide substrate hydrolysis inhibition assay, MMP-13CD. Type of data set: biochemical. As to conditions: Table I; thiopeptolide substrate, HEPES pH 7.0, 22° C.; read-out: MMP-13CD IC50. An excerpt: Thiopeptolide substrates show virtually no decomposition or hydrolysis at or below neutral pH in the absence of a matrix metalloproteinase enzyme.

Broadly, the melting point is the temperature, or range, at which the solid turns liquid. In the case of `COc1ccc(CNC(=O)c2cc3c(=O)n(CC#N)c(=O)n(C)c3s2)cc1` [Example 223, 3-Cyanomethyl-1-methyl-2,4-dioxo-1,2,3,4-tetrahydro-thieno[2,3-d]pyrimidine-6-carboxylic acid 4-methoxy-benzylamide], the melting point is 180 to 183 °C.
For orientation: IC50 means the concentration that inhibits the measured activity by half. `COC(=O)/C=C/Cn1c(=O)c2cc(C(=O)NCc3ccc(OC)cc3)sc2n(C)c1=O` [Example 225, (E)-4-[6-(4-Methoxy-benzylcarbamoyl)-1-methyl-2,4-dioxo-1,4-dihydro-2H-thieno[2,3-d]pyrimidin-3-yl]-but-2-enoic acid methyl ester]: the melting point lay within 169 to 171 °C. Moreover, the IC50 in data set [1] came out at 0.225 µM.
The like results for `O=C(OCc1ccncc1)c1cc2c(=O)n(Cc3ccccc3)c(=O)[nH]c2s1` [Example 2, 3-Benzyl-2,4-dioxo-1,2,3,4-tetrahydro-thieno[2,3-d]pyrimidine-6-carboxylic acid pyridin-4-ylmethyl ester] were, in that order, 248 to 250 °C and 0.31 µM.
With `O=C(NCc1ccccc1)c1cc2c(=O)n(Cc3ccccc3)c(=O)[nH]c2s1` [Example 3, 3-Benzyl-2,4-dioxo-1,2,3,4-tetrahydro-thieno[2,3-d]pyrimidine-6-carboxylic acid benzyl amide], the melting point was > 255 °C. The IC50 in data set [1] amounted to 30 µM.
On to `Cn1c(=O)n(Cc2ccccc2)c(=O)c2cc(C(=O)OCc3ccccc3)sc21` [Example 9, 3-Benzyl-1-methyl-2,4-dioxo-1,2,3,4-tetrahydro-thieno[2,3-d]pyrimidine-6-carboxylic acid benzyl ester], for which the melting point lay within 143 to 145 °C.
In the case of `Cn1c(=O)n(Cc2ccccc2)c(=O)c2cc(C(=O)OC3CCOCC3)sc21` [Example 167, 3-Benzyl-1-methyl-2,4-dioxo-1,2,3,4-tetrahydro-thieno[2,3-d]pyrimidine-6-carboxylic acid tetrahydro-pyran-4-yl ester], in data set [1], the IC50 was 26 µM.
On the same count and under the same terms, the same measure for `COc1ccc(CNC(=O)c2cc3c(=O)n(CC[C@@H](C)CCC=C(C)C)c(=O)n(C)c3s2)cc1` [Example 255]: 14 µM; for `Cn1c(=O)n(Cc2ccc(C(=O)O)cc2)c(=O)c2cc(C(=O)NCc3ccc(Cl)cc3)sc21` [Example 58, 4-[6-(4-Chloro-benzylcarbamoyl)-1-methyl-2,4-dioxo-1,4-dihydro-2H-thieno[2,3-d]pyrimidin-3-ylmethyl]-benzoic acid]: 0.0115 µM; for `COc1cccc(CNC(=O)c2cc3c(=O)n(CCCCCC#N)c(=O)n(C)c3s2)c1` [Example 283]: 1.7 µM.
On the same count and under the same terms, the same measure for `Cn1c(=O)n(Cc2ccccc2)c(=O)c2cc(C(=O)OCCC(c3ccccc3)c3ccccc3)sc21` [Example 205, 3-Benzyl-1-methyl-2,4-dioxo-1,2,3,4-tetrahydro-thieno[2,3-d]pyrimidine-6-carboxylic acid 3,3-diphenyl-propyl ester]: 19 µM.
Turning to `Cn1c(=O)n(Cc2ccccc2)c(=O)c2cc(C(=O)NCc3ccc(F)c(Cl)c3)sc21` [Example 328, 3-Benzyl-1-methyl-2,4-dioxo-1,2,3,4-tetrahydro-thieno[2,3-d]pyrimidine-6-carboxylic acid 3-chloro-4-fluoro-benzylamide], in data set [1], the IC50 was determined as 2.7 µM.
In the case of `Cn1c(=O)n(Cc2ccccc2)c(=O)c2cc(C(=O)OCc3ccc(Cl)cc3)sc21` [Example 185, 3-Benzyl-1-methyl-2,4-dioxo-1,2,3,4-tetrahydro-thieno[2,3-d]pyrimidine-6-carboxylic acid 4-chloro-benzyl ester], the IC50 in data set [1] was determined as 0.014 µM.
Still for that read-out and setting: the same measure for `Cn1c(=O)n(Cc2ccccc2)c(=O)c2cc(C(=O)OCC(Cl)(Cl)Cl)sc21` [Example 171, 3-Benzyl-1-methyl-2,4-dioxo-1,2,3,4-tetrahydro-thieno[2,3-d]pyrimidine-6-carboxylic acid 2,2,2-trichloro-ethyl ester]: 14 µM.
The same measure, in the same setting: with `COc1cccc(CNC(=O)c2cc3c(=O)n(Cc4cnc(C)s4)c(=O)n(C)c3s2)c1` [Example 86, 1-Methyl-3-(2-methyl-thiazol-5-ylmethyl)-2,4-dioxo-1,2,3,4-tetrahydro-thieno[2,3-d]pyrimidine-6-carboxylic acid 3-methoxy-benzylamide] the figure was 1.4 µM; with “3-(4-Methoxycarboxyl-butyl)-1-methyl-2,4-dioxo-1,2,3,4-tetrahydro-thieno[2,3-d]pyrimidine-6-carboxylic acid benzyl ester [Example 141]”, 0.15 µM; with `COC(=O)c1ccc(Cn2c(=O)c3cc(C(=O)NCc4ccc(OC)cc4)sc3n(C)c2=O)cc1` [Example 239, 4-[6-(4-Methoxy-benzylcarbamoyl)-1-methyl-2,4-dioxo-1,4-dihydro-2H-thieno[2,3-d]pyrimidin-3-ylmethyl]-benzoic acid methyl ester], 0.0585 µM.
With `Cn1c(=O)n(Cc2ccc(C#N)cc2)c(=O)c2cc(C(=O)OCc3ccccc3)sc21` [Example 313, 3-(4-Cyano-benzyl)-1-methyl-2,4-dioxo-1,2,3,4-tetrahydro-thieno[2,3-d]pyrimidine-6-carboxylic acid benzyl ester], the IC50 in data set [1] worked out at 0.00645 µM.
Regarding `COc1ccc(CNC(=O)c2cc3c(=O)n(CCS(=O)(=O)c4ccccc4)c(=O)n(C)c3s2)cc1` [Example 227, 3-(2-Benzenesulfonyl-ethyl)-1-methyl-2,4-dioxo-1,2,3,4-tetrahydro-thieno[2,3-d]pyrimidine-6-carboxylic acid 4-methoxy-benzylamide], the IC50 in data set [1] is 3.8 µM.
The same measure, in the same setting: with `Cn1c(=O)n(Cc2ccc(C(=O)O)cc2)c(=O)c2cc(C(=O)NCc3cc(C(F)(F)F)cc(C(F)(F)F)c3)sc21` [Example 57, 4-[6-(3,5-Bis-trifluoromethyl-benzylcarbamoyl)-1-methyl-2,4-dioxo-1,4-dihydro-2H-thieno[2,3-d]pyrimidin-3-ylmethyl]-benzoic acid] the figure was 5.6 µM.
Same read-out and setting: the same measure for `Cn1c(=O)n(Cc2ccccc2)c(=O)c2cc(C(=O)OCCCc3ccccn3)sc21` [Example 194, 3-Benzyl-1-methyl-2,4-dioxo-1,2,3,4-tetrahydro-thieno[2,3-d]pyrimidine-6-carboxylic acid 3-pyridin-2-yl-propyl ester]: 88 µM; for “3-(4-Carboxy-benzyl)-1-methyl-2,4-dioxo-1,2,3,4-tetrahydro-thieno[2,3-d]pyrimidine-6-carboxylic acid 2-ethoxy-benzyl ester [Example 319]”: 8 µM; for `Cn1c(=O)n(Cc2ccccc2)c(=O)c2cc(C(=O)OCc3ccc4occc4c3)sc21` [Example 314, 3-Benzyl-1-methyl-2,4-dioxo-1,2,3,4-tetrahydro-thieno[2,3-d]pyrimidine-6-carboxylic acid benzofuran-5-ylmethyl ester]: 0.0185 µM.
On the same count and under the same terms, with `COc1ccc(CNC(=O)c2cc3c(=O)n(CCS(=O)(=O)c4ccccc4)c(=O)n(C)c3s2)cc1` [Example 266] the figure was 4 µM; with `CCN(CC)CC(C)OC(=O)c1cc2c(=O)n(Cc3ccccc3)c(=O)n(C)c2s1` (stereo not drawn) [Example 152, 3-Benzyl-1-methyl-2,4-dioxo-1,2,3,4-tetrahydro-thieno[2,3-d]pyrimidine-6-carboxylic acid 2-diethylamino-1-methyl-ethyl ester], 9.9 µM.
Regarding `COc1cccc(CNC(=O)c2cc3c(=O)n(CC(=O)C(CC(=O)OC(C)(C)C)NC(=O)OCc4ccccc4)c(=O)n(C)c3s2)c1` (stereo not drawn) [Example 299], the IC50 in data set [1] is 30 µM.
Take `Cn1c(=O)n(Cc2ccccc2)c(=O)c2cc(C(=O)NCc3ccc(Cl)cc3)sc21` [Example 357, 3-Benzyl-1-methyl-2,4-dioxo-1,2,3,4-tetrahydro-thieno[2,3-d]pyrimidine-6-carboxylic acid 4-chloro-benzylamide]: the IC50 in data set [1] came out at 0.32 µM.
The same measure, in the same setting: the same measure for `COc1ccc(CNC(=O)c2cc3c(=O)n(CCS(=O)(=O)c4cccc(C(F)(F)F)c4)c(=O)n(C)c3s2)cc1` [Example 245, 1-Methyl-2,4-dioxo-3-[2-(3-trifluoromethyl-benzenesulfonyl)-ethyl]-1,2,3,4-tetrahydro-thieno[2,3-d]pyrimidine-6-carboxylic acid 4-methoxy-benzylamide]: 30 µM; for `COc1ccc(CNC(=O)c2cc3c(=O)n(CCC(=O)c4ccccc4)c(=O)n(C)c3s2)cc1` [Example 242, 1-Methyl-2,4-dioxo-3-(3-oxo-3-phenyl-propyl)-1,2,3,4-tetrahydro-thieno[2,3-d]pyrimidine-6-carboxylic acid 4-methoxy-benzylamide]: 3 µM; for `CCOc1cccc(CCNC(=O)c2cc3c(=O)n(Cc4ccccc4)c(=O)n(C)c3s2)c1` [Example 327, 3-Benzyl-1-methyl-2,4-dioxo-1,2,3,4-tetrahydro-thieno[2,3-d]pyrimidine-6-carboxylic acid[2-(3-ethoxy-phenyl)-ethyl]-amide]: 2.8 µM.
The same measure, in the same setting: with `COC(=O)c1ccc(Cn2c(=O)c3cc(C(=O)NCc4cccc(OC)c4)sc3n(C)c2=O)cc1C` [Example 241, 4-[6-(3-Methoxy-benzylcarbamoyl)-1-methyl-2,4-dioxo-1,4-dihydro-2H-thieno[2,3-d]pyrimidin-3-ylmethyl]-2-methyl-benzoic acid methyl ester] the figure was 0.0195 µM; with `Cn1c(=O)n(Cc2ccccc2)c(=O)c2cc(C(=O)NCc3ccc(N)cc3)sc21` [Example 321, 3-Benzyl-1-methyl-2,4-dioxo-1,2,3,4-tetrahydro-thieno[2,3-d]pyrimidine-6-carboxylic acid 4-amino-benzylamide], > 100 µM; with `O=C(OCCc1ccccc1)c1cc2c(=O)n(Cc3ccccc3)c(=O)[nH]c2s1` [Example 12, 3-Benzyl-2,4-dioxo-1,2,3,4-tetrahydro-thieno[2,3-d]pyrimidine-6-carboxylic acid 2-phenylethyl ester], > 100 µM.
`CCC#CCn1c(=O)c2cc(C(=O)NCc3cccc(OC)c3)sc2n(C)c1=O` [Example 291]: in data set [1], the IC50 came to 0.12 µM.
